Results on 13 compounds are retold here after ChEMBL document CHEMBL1201862, “PubChem BioAssay data set” (2004).

Common to all, as to experiment: inhibition of tumour cell growth, NCI panel, 48 h
Assay [1] deals with OVCAR-3.
Assay [2] concerns SN12C.
The test system of assay [3] is A498.
In assay [4] the test system is MCF7.
Assay [5] has as its system U-251.
For assay [6], the system named is TK-10.
For assay [7], the system named is MDA-MB-435.
Assay [8] has as its system PC-3.
Assay [9] deals with SF-295.
Assay [10] concerns 786-0.
For assay [11], the system named is MDA-N.
Assay [12] relates to SK-MEL-5.
Assay [13] relates to SK-OV-3.
Assay [14] relates to UACC-62.
In assay [15] the test system is KM12.
Assay [16] concerns DU-145.
Assay [17] deals with SW-620.
Assay [18] concerns SK-MEL-28.
The test system of assay [19] is SF-268.
For assay [20], the system named is BT-549.

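Cultured in 96-well plates, cells were exposed to test compound for 48 hours across five concentrations. GI50 = concentration required for 50% inhibition of growth.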 The source made the active and inactive calls. No stated cut-off is given here; in the data, active = GI50 up to about 1.1 µM and inactive = higher.

With `COC(=O)c1c2c(cc3c1CC1(C3)Cc3cc4c(c(C(=O)OC)c3C1)CCCC4)CCCC2`, the GI50 in [1], in [2], in assay [3], in [4], in [5] and in [6] was > 100 µM (inactive) throughout. The GI50 in assay [7] is > 100 µM (inactive); in [8] it was 3.94 µM (inactive); in [9], > 100 µM (inactive); in assay [10], > 100 µM (inactive); in assay [11], > 100 µM (inactive); in assay [12], 53.3 µM (inactive). For the same compound, the GI50 in assay [13], in assay [14] and in assay [15] was > 100 µM (inactive) in each case.
In the case of `O/N=C1/CCCCC1NO` (centres undefined), the GI50 in [1], in [2], in [16], in [17], in assay [4] and in assay [5] was > 100 µM (inactive) throughout. Moreover, the GI50 in assay [6], in assay [7], in [18], in assay [8], in assay [9] and in assay [10] was > 100 µM (inactive) each time. Also, the GI50 in [11], in assay [12], in assay [13], in assay [19], in assay [14] and in assay [15] was > 100 µM (inactive) each time.
As for `CN(C)c1ccc(/C=C/c2ccnc3ccccc23)cc1N`, the GI50 is 2.32 µM (inactive) in assay [1]; 14.8 µM (inactive) in assay [2]; 10.4 µM (inactive) in assay [16]; 10.4 µM (inactive) in assay [3]; 12.4 µM (inactive) in assay [17]; 1.57 µM (inactive) in assay [4]. Further, the GI50 in assay [5] is 9.66 µM (inactive); in assay [6] it was 5.16 µM (inactive); in assay [7], 2.55 µM (inactive); in assay [18], 13 µM (inactive); in assay [8], 4.35 µM (inactive); in assay [9], 11 µM (inactive). The GI50 was 12.6 µM (inactive) in assay [10]; 3.1 µM (inactive) in assay [11]; 2.82 µM (inactive) in assay [12]; 15.2 µM (inactive) in assay [13]; 9.73 µM (inactive) in assay [19]; 12.1 µM (inactive) in assay [14]. Further, in assay [15], the GI50 was 7.85 µM (inactive).
Regarding `O=C(N/C(=C\c1ccc(/C=C(\NC(=O)c2ccccc2)c2nc3c(O)nc(S)nc3[nH]2)cc1)c1nc2c(O)nc(S)nc2[nH]1)c1ccccc1`, the GI50 is > 100 µM (inactive) in assay [1]; > 100 µM (inactive) in [2]; 40.6 µM (inactive) in assay [3]; 46.6 µM (inactive) in [17]; > 100 µM (inactive) in [5]; > 100 µM (inactive) in assay [6]. In addition, the GI50 is 29.3 µM (inactive) in assay [18]; > 100 µM (inactive) in [9]; > 100 µM (inactive) in [10]; 64.4 µM (inactive) in assay [12]; > 100 µM (inactive) in [13]; 57.9 µM (inactive) in assay [19]. Also, the GI50 in assay [14] was 34.3 µM (inactive); in assay [15], > 100 µM (inactive).
For the compound `CC(=O)O/N=C/c1ncccc1CO`, the GI50 in [1], in assay [2], in [3], in [17], in assay [5] and in assay [6] was > 100 µM (inactive) each time. Also, the GI50 in assay [18], in assay [9], in assay [10], in [12], in assay [13] and in assay [19] was > 100 µM (inactive) throughout. The GI50 in assay [14] and in [15] was > 100 µM (inactive) in each case.
With `CN(C)C(=O)c1ccc([N+](=O)[O-])cc1`, the GI50 in assay [1], in assay [2], in assay [3], in assay [17], in assay [5] and in [6] was > 100 µM (inactive) each time. The GI50 in assay [18], in assay [9], in assay [10], in assay [12], in assay [13] and in assay [19] was > 100 µM (inactive) throughout. The GI50 in assay [14] and in assay [15] was > 100 µM (inactive) each time.
Take `NC1NCCC(=O)N1CCc1c[nH]c2ccccc12` (centres undefined): the GI50 in [1] was 20.9 µM (inactive); in assay [2] it was 27.2 µM (inactive); in assay [16] it was 23.7 µM (inactive); in assay [3], 12.7 µM (inactive); in assay [17], 21.3 µM (inactive); in [4], 15.5 µM (inactive). The GI50 in assay [5] was 65.2 µM (inactive); in [6], 25.9 µM (inactive); in assay [7], 17 µM (inactive); in assay [18], 19.3 µM (inactive); in assay [8], 19.3 µM (inactive); in [9] it was 24.5 µM (inactive). Also, the GI50 in assay [10] is 20 µM (inactive); in assay [11] it was 17.6 µM (inactive); in [12], 16.9 µM (inactive); in assay [13] it was > 100 µM (inactive); in assay [19], 22.1 µM (inactive); in assay [14], 20.1 µM (inactive). Moreover, in assay [15], the GI50 is 15.5 µM (inactive).
For the compound `CC(C)c1c2[nH]c3ccccc3c2c(C(C)C)c2[nH]c3ccccc3c12`, the GI50 in assay [1] is > 54.1 µM (inactive); in assay [2] it was 35.6 µM (inactive); in [3], > 100 µM (inactive); in assay [17], > 82 µM (inactive); in assay [5] it was > 100 µM (inactive); in assay [6], > 100 µM (inactive). Besides, the GI50 was > 100 µM (inactive) in [18]; > 65.9 µM (inactive) in [9]; > 52.5 µM (inactive) in assay [10]; > 100 µM (inactive) in [12]; > 100 µM (inactive) in assay [13]; > 100 µM (inactive) in assay [19]. Moreover, the GI50 in assay [14] was > 100 µM (inactive); in assay [15] it was 29.9 µM (inactive).
Consider `Nc1nc2c3c(ncn3CC(O)CO2)n1` (centres undefined), for which the GI50 in [1], in [2], in assay [3], in assay [17], in [5] and in assay [6] was > 100 µM (inactive) each time. Further, the GI50 in [18], in [9], in assay [10], in assay [12], in [13] and in assay [19] was > 100 µM (inactive) in each case. The GI50 in assay [14] and in assay [15] was > 100 µM (inactive) each time.
Regarding `COc1cc2nc(NCCCCCNC(=O)c3ccco3)nc(N)c2cc1OC`, the GI50 in assay [1] was 24.7 µM (inactive); in [2], 39.8 µM (inactive); in assay [3], 80.2 µM (inactive); in [17], 22.5 µM (inactive); in assay [5] it was 20.5 µM (inactive); in assay [6], 53.1 µM (inactive). The GI50 in [18] was 19.2 µM (inactive); in assay [9], 37.2 µM (inactive); in assay [10], 21.5 µM (inactive); in assay [12], 19.2 µM (inactive); in assay [13], 32.4 µM (inactive); in [19] it was 36.2 µM (inactive). For the same compound, the figures for the GI50 in [14] and in [15] were 22.2 µM (inactive) and 24 µM (inactive), respectively.
Consider `O=C(CCl)N1CCN(c2ccccn2)CC1`, for which the GI50 in assay [16] is > 100 µM (inactive); in assay [3], 17 µM (inactive); in assay [17] it was 23.8 µM (inactive); in assay [4], 23.9 µM (inactive); in assay [5], 17.9 µM (inactive); in assay [6], 19.5 µM (inactive). Besides, the GI50 was 20 µM (inactive) in assay [18]; > 100 µM (inactive) in assay [8]; > 10 µM (inactive) in assay [9]; 18.4 µM (inactive) in [10]; 25.2 µM (inactive) in assay [11]; 18.1 µM (inactive) in assay [12]. Besides, the GI50 was 46.7 µM (inactive) in assay [13], 23.6 µM (inactive) in [19] and 34.5 µM (inactive) in assay [15].
`O=C1N(c2ccccc2)N=C2c3ccncc3C3=NN(c4ccccc4)C(=O)C123` (centres undefined): the GI50 was > 100 µM (inactive) in assay [1]; > 100 µM (inactive) in [2]; > 100 µM (inactive) in assay [3]; 2.53 µM (inactive) in [17]; > 35.6 µM (inactive) in assay [4]; > 100 µM (inactive) in assay [5]. Moreover, the GI50 in assay [6] was > 100 µM (inactive); in [7], 4.36 µM (inactive); in [18] it was > 22 µM (inactive); in assay [20] it was > 48.4 µM (inactive); in assay [8], 2.43 µM (inactive); in [9] it was 4.37 µM (inactive). Moreover, the GI50 was > 100 µM (inactive) in assay [10]; 7.55 µM (inactive) in assay [12]; > 100 µM (inactive) in [13]; 5.57 µM (inactive) in assay [14]; 0.556 µM (active) in assay [15].
Turning to `NC(Cc1c2ccccc2cc2ccccc12)C(=O)O` (centres undefined), the GI50 in [1] was > 100 µM (inactive); in [2] it was 54.3 µM (inactive); in [16], 85.1 µM (inactive); in assay [17], 70.5 µM (inactive); in assay [4] it was > 100 µM (inactive); in [5], > 100 µM (inactive). In addition, the GI50 in [6], in [7], in assay [18], in assay [8], in assay [9] and in assay [10] was > 100 µM (inactive) throughout. Besides, the GI50 in [12] was 47.4 µM (inactive); in [13], > 100 µM (inactive); in assay [19], > 100 µM (inactive); in [14], 76.9 µM (inactive); in [15] it was > 100 µM (inactive).
